Laboratory results as given in ChEMBL document CHEMBL1201861, “Genomics of Drug Sensitity in Cancer screening data, Wellcome Trust Sanger Institute”.
Values joined by “and” are separate entries in the source; they are usually repeats but may differ in a detail not shown here. Equal values may be shown once. Where a SMILES comes first, the peptide text is derived from it. The star is where a group is joined. Cbz = O=C(OCc1ccccc1)*

Columns and labels:
Assay in all cases: cells
[1] = tested on: CTB-1; format: functional, cell-based, Homo sapiens
Description: SANGER: Inhibition of human CTB-1 cell growth in a cell viability assay.

[2] = tested on: DJM-1; format: functional, cell-based, Homo sapiens;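 also: growth inhibition of human DJM-1 cells, read out by a cell viability assay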
Description: SANGER: Inhibition of human DJM-1 cell growth in a cell viability assay.

[3] = tested on: DSH1; format: functional, cell-based; conditions: Homo sapiens;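 also: growth inhibition of human DSH1 cells, measured with a cell viability readout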
Description: SANGER: Inhibition of human DSH1 cell growth in a cell viability assay.

[4] = tested on: ES4; format: functional, cell-based, Homo sapiens;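 also: growth inhibition of human ES4 cells, read out by a cell viability assay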
Description: SANGER: Inhibition of human ES4 cell growth in a cell viability assay.

[5] = tested on: EW-1; format: functional, cell-based, Homo sapiens;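 also: growth inhibition of the human EW-1 cell line, read out by a cell viability assay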
Description: SANGER: Inhibition of human EW-1 cell growth in a cell viability assay.

[6] = tested on: EW-13; format: functional, cell-based, Homo sapiens; conditions: read-out: IC50;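 also: growth inhibition of EW-13 cells, read out with a cell viability assay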
Description: SANGER: Inhibition of human EW-13 cell growth in a cell viability assay.

[7] = tested on: EW-3; format: functional, cell-based, Homo sapiens;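 also: cell viability assay read-out, IC50 reflects inhibition of growth of the EW-3 cells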
Description: SANGER: Inhibition of human EW-3 cell growth in a cell viability assay.

[8] = tested on: GCIY; format: functional, cell-based, Homo sapiens;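 also: growth inhibition of the human GCIY cell line, read out by a cell viability assay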
Description: SANGER: Inhibition of human GCIY cell growth in a cell viability assay.

[9] = tested on: GT3TKB; format: functional, cell-based, Homo sapiens;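 also: growth inhibition of the cell line, read out with a cell viability assay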
Description: SANGER: Inhibition of human GT3TKB cell growth in a cell viability assay.

[10] = tested on: HAL-01; format: functional, cell-based, Homo sapiens;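 also: growth inhibition of human HAL-01 cells, read out with a cell viability assay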
Description: SANGER: Inhibition of human HAL-01 cell growth in a cell viability assay.

[11] = tested on: HCE-T; format: functional, cell-based, Homo sapiens;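 also: cell viability assay read-out, reporting inhibition of HCE-T cell growth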
Description: SANGER: Inhibition of human HCE-T cell growth in a cell viability assay.

[12] = tested on: IST-MES1; format: functional, cell-based, Homo sapiens;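 also: growth inhibition of IST-MES1 cells, measured with a cell viability assay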
Description: SANGER: Inhibition of human IST-MES1 cell growth in a cell viability assay.

[13] = tested on: JAR; format: functional, cell-based, Homo sapiens;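 also: growth inhibition of human JAR cells determined with a cell viability assay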
Description: SANGER: Inhibition of human JAR cell growth in a cell viability assay.

[14] = tested on: JVM-2; format: functional, cell-based, Homo sapiens;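 also: growth inhibition of JVM-2 cells determined by a cell viability assay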
Description: SANGER: Inhibition of human JVM-2 cell growth in a cell viability assay.

[15] = tested on: KE-37; format: functional, cell-based, Homo sapiens;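 also: growth inhibition of KE-37 cells, read out with a cell viability assay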
Description: SANGER: Inhibition of human KE-37 cell growth in a cell viability assay.

[16] = tested on: KURAMOCHI; format: functional, cell-based, Homo sapiens;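 also: growth inhibition of KURAMOCHI cells, read out with a cell viability assay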
Description: SANGER: Inhibition of human KURAMOCHI cell growth in a cell viability assay.

[17] = tested on: L-363; format: functional, cell-based, Homo sapiens
Description: SANGER: Inhibition of human L-363 cell growth in a cell viability assay.

[18] = tested on: LAMA-84; format: functional, cell-based, Homo sapiens;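 also: growth inhibition of LAMA-84 cells, read out with a cell viability assay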
Description: SANGER: Inhibition of human LAMA-84 cell growth in a cell viability assay.

[19] = tested on: LB1047-RCC; format: functional, cell-based, Homo sapiens;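 also: inhibition of cell growth, determined with a cell viability assay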
Description: SANGER: Inhibition of human LB1047-RCC cell growth in a cell viability assay.

[20] = tested on: LU-139; format: functional, cell-based, Homo sapiens
Description: SANGER: Inhibition of human LU-139 cell growth in a cell viability assay.

[21] = tested on: MC116; format: functional, cell-based, Homo sapiens;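 also: growth inhibition of MC116 cells, read out with a cell viability assay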
Description: SANGER: Inhibition of human MC116 cell growth in a cell viability assay.

[22] = tested on: ML-2; format: functional, cell-based, Homo sapiens;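 also: growth inhibition of ML-2 cells, measured with a cell viability readout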
Description: SANGER: Inhibition of human ML-2 cell growth in a cell viability assay.

[23] = tested on: NB10; format: functional, cell-based, Homo sapiens;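 also: growth inhibition of NB10 cells, read out by a cell viability assay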
Description: SANGER: Inhibition of human NB10 cell growth in a cell viability assay.

[24] = tested on: NCI-H446; format: functional, cell-based, Homo sapiens;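 also: growth inhibition of NCI-H446 cells determined by a cell viability assay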
Description: SANGER: Inhibition of human NCI-H446 cell growth in a cell viability assay.

[25] = tested on: NCI-H526; format: functional, cell-based, Homo sapiens;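 also: growth inhibition of the human NCI-H526 cell line, measured by a cell viability assay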
Description: SANGER: Inhibition of human NCI-H526 cell growth in a cell viability assay.

[26] = tested on: NCI-H747; format: functional, cell-based, Homo sapiens;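 also: growth inhibition of human NCI-H747 cells, read out by a cell viability assay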
Description: SANGER: Inhibition of human NCI-H747 cell growth in a cell viability assay.

[27] = tested on: NCI-H82; format: functional, cell-based, Homo sapiens;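 also: growth inhibition of NCI-H82 cells, measured with a cell viability readout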
Description: SANGER: Inhibition of human NCI-H82 cell growth in a cell viability assay.

[28] = tested on: SNU1; format: functional, cell-based, Homo sapiens;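 also: growth inhibition of human NCI-SNU-1 cells, measured with a cell viability assay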
Description: SANGER: Inhibition of human NCI-SNU-1 cell growth in a cell viability assay.

[29] = tested on: NMC-G1; format: functional, cell-based, Homo sapiens;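 also: growth inhibition of the NMC-G1 cell line, measured with a cell viability read-out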
Description: SANGER: Inhibition of human NMC-G1 cell growth in a cell viability assay.

[30] = tested on: NOS-1; format: functional, cell-based, Homo sapiens;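 also: growth inhibition of the human NOS-1 cell line, read out with a cell viability assay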
Description: SANGER: Inhibition of human NOS-1 cell growth in a cell viability assay.

[31] = tested on: OS-RC-2; format: functional, cell-based, Homo sapiens;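 also: growth inhibition of human OS-RC-2 cells, measured by a cell viability assay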
Description: SANGER: Inhibition of human OS-RC-2 cell growth in a cell viability assay.

[32] = tested on: OVCAR-4; format: functional, cell-based, Homo sapiens;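 also: growth inhibition of human OVCAR-4 cells, measured with a cell viability assay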
Description: SANGER: Inhibition of human OVCAR-4 cell growth in a cell viability assay.

[33] = tested on: P30-OHK; format: functional, cell-based, Homo sapiens;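 also: growth inhibition of the P30-OHK cell line, read out with a cell viability assay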
Description: SANGER: Inhibition of human P30-OHK cell growth in a cell viability assay.

[34] = tested on: RKO; format: functional, cell-based, Homo sapiens;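 also: growth inhibition of human RKO cells, read out with a cell viability assay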
Description: SANGER: Inhibition of human RKO cell growth in a cell viability assay.

[35] = tested on: RXF 393; format: functional, cell-based, Homo sapiens;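 also: growth inhibition of human RXF 393 cells, read out with a cell viability assay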
Description: SANGER: Inhibition of human RXF393 cell growth in a cell viability assay.

[36] = tested on: SBC-1; format: functional, cell-based, Homo sapiens;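 also: cell viability assay measuring growth inhibition of the SBC-1 cell line, IC50 being the concentration that halves growth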
Description: SANGER: Inhibition of human SBC-1 cell growth in a cell viability assay.

[37] = tested on: SHP77; format: functional, cell-based, Homo sapiens, SHP-77;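 also: growth inhibition of human SHP-77 cells measured by a cell viability assay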
Description: SANGER: Inhibition of human SHP-77 cell growth in a cell viability assay.

[38] = tested on: SK-N-FI; format: functional, cell-based, Homo sapiens;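 also: cell viability assay measuring growth inhibition of human SK-N-FI cells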
Description: SANGER: Inhibition of human SK-N-FI cell growth in a cell viability assay.

[39] = tested on: SK-NEP-1; format: functional, cell-based, Homo sapiens;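 also: growth inhibition of human SK-NEP-1 cells, read out by a cell viability assay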
Description: SANGER: Inhibition of human SK-NEP-1 cell growth in a cell viability assay.

[40] = tested on: SW 962; format: functional, cell-based, Homo sapiens;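 also: growth inhibition of human SW962 cells, read out by a cell viability assay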
Description: SANGER: Inhibition of human SW962 cell growth in a cell viability assay.

[41] = tested on: 697; format: functional, cell-based, Homo sapiens
Description: SANGER: Inhibition of human 697 cell growth in a cell viability assay.

[42] = tested on: A3-KAW; format: functional, cell-based, Homo sapiens;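 also: growth inhibition of human A3-KAW cells, read out with a cell viability assay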
Description: SANGER: Inhibition of human A3-KAW cell growth in a cell viability assay.

[43] = tested on: A4-Fuk; format: functional, cell-based, Homo sapiens;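 also: growth inhibition of A4-Fuk cells, read out by a cell viability assay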
Description: SANGER: Inhibition of human A4-Fuk cell growth in a cell viability assay.

[44] = tested on: ATN-1; format: functional, cell-based, Homo sapiens;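 also: growth inhibition of human ATN-1 cells, read out with a cell viability assay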
Description: SANGER: Inhibition of human ATN-1 cell growth in a cell viability assay.

[45] = tested on: BE-13; format: functional, cell-based, Homo sapiens;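 also: growth inhibition of human BE-13 cells, measured with a cell viability assay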
Description: SANGER: Inhibition of human BE-13 cell growth in a cell viability assay.

[46] = tested on: TGBC1TKB; format: functional, cell-based, Homo sapiens;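 also: growth inhibition of TGBC1TKB cells, read out by a cell viability assay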
Description: SANGER: Inhibition of human TGBC1TKB cell growth in a cell viability assay.

[47] = tested on: TK-10; format: functional, cell-based, Homo sapiens;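 also: growth inhibition of TK-10 cells, read out in a cell viability assay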
Description: SANGER: Inhibition of human TK10 cell growth in a cell viability assay.

[48] = tested on: U-266; format: functional, cell-based, Homo sapiens
Description: SANGER: Inhibition of human U-266 cell growth in a cell viability assay.

[49] = tested on: CAS-1; format: functional, cell-based, Homo sapiens;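 also: growth inhibition of CAS-1 cells, measured with a cell viability assay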
Description: SANGER: Inhibition of human CAS-1 cell growth in a cell viability assay.

[50] = tested on: COLO-684; format: functional, cell-based, Homo sapiens
Description: SANGER: Inhibition of human COLO-684 cell growth in a cell viability assay.

For `NC1(c2ccc(-c3nc4ccn5c(=O)[nH]nc5c4cc3-c3ccccc3)cc2)CCC1` [MK-2206], the IC50 ([1]; Homo sapiens, CTB-1) was 1290 nM, the IC50 ([2]; Homo sapiens, DJM-1) was > 4000 nM and the IC50 [3] was > 4000 nM. For the same compound, the IC50 ([4]; Homo sapiens, ES4) was > 4000 nM, the IC50 ([5]; Homo sapiens, EW-1) was > 4000 nM and the IC50 ([6]; Homo sapiens, EW-13) was > 4000 nM. For the same compound, the IC50 ([7]; Homo sapiens, EW-3) was 3200 nM, the IC50 ([8]; Homo sapiens, GCIY) was > 4000 nM and the IC50 ([9]; Homo sapiens, GT3TKB) was > 4000 nM. For the same compound, the IC50 ([10]; Homo sapiens, HAL-01) was 621 nM, the IC50 ([11]; Homo sapiens, HCE-T) was > 4000 nM and the IC50 ([12]; Homo sapiens, IST-MES1) was > 4000 nM. The IC50 ([13]; Homo sapiens, JAR) was > 4000 nM, the IC50 ([14]; Homo sapiens, JVM-2) was > 4000 nM and the IC50 ([15]; Homo sapiens, KE-37) was 583 nM. For the same compound, the IC50 ([16]; Homo sapiens, KURAMOCHI) was > 4000 nM, the IC50 ([17]; Homo sapiens, L-363) was 834 nM and the IC50 ([18]; Homo sapiens, LAMA-84) was > 4000 nM. For the same compound, the IC50 ([19]; Homo sapiens, LB1047-RCC) was 2240 nM, the IC50 ([20]; Homo sapiens, LU-139) was > 4000 nM and the IC50 ([21]; Homo sapiens, MC116) was > 4000 nM. The IC50 ([22]; Homo sapiens, ML-2) was > 4000 nM, the IC50 ([23]; Homo sapiens, NB10) was > 4000 nM and the IC50 ([24]; Homo sapiens, NCI-H446) was > 4000 nM. The IC50 ([25]; Homo sapiens, NCI-H526) was > 4000 nM, the IC50 ([26]; Homo sapiens, NCI-H747) was 3210 nM and the IC50 ([27]; Homo sapiens, NCI-H82) was > 4000 nM. The IC50 ([28]; Homo sapiens, SNU1) was > 4000 nM, the IC50 ([29]; Homo sapiens, NMC-G1) was > 4000 nM and the IC50 ([30]; Homo sapiens, NOS-1) was 637 nM. For the same compound, the IC50 ([31]; Homo sapiens, OS-RC-2) was 3110 nM, the IC50 ([32]; Homo sapiens, OVCAR-4) was > 4000 nM and the IC50 ([33]; Homo sapiens, P30-OHK) was 3810 nM. It also gave an IC50 ([34]; Homo sapiens, RKO) of 1870 nM, an IC50 ([35]; Homo sapiens, RXF 393) of 2600 nM and an IC50 ([36]; Homo sapiens, SBC-1) of 440 nM. For the same compound, the IC50 ([37]; Homo sapiens, SHP77) was > 4000 nM, the IC50 ([38]; Homo sapiens, SK-N-FI) was > 4000 nM and the IC50 ([39]; Homo sapiens, SK-NEP-1) was 1140 nM. The IC50 ([40]; Homo sapiens, SW 962) was > 4000 nM, the IC50 ([41]; Homo sapiens) was 1380 nM and the IC50 ([42]; Homo sapiens, A3-KAW) was > 4000 nM. The IC50 ([43]; Homo sapiens, A4-Fuk) was 469 nM, the IC50 ([44]; Homo sapiens, ATN-1) was > 4000 nM and the IC50 ([45]; Homo sapiens, BE-13) was > 4000 nM. For the same compound, the IC50 ([46]; Homo sapiens, TGBC1TKB) was > 4000 nM, the IC50 ([47]; Homo sapiens, TK-10) was > 4000 nM and the IC50 ([48]; Homo sapiens, U-266) was > 4000 nM. For the same compound, the IC50 ([49]; Homo sapiens, CAS-1) was > 4000 nM and the IC50 ([50]; Homo sapiens, COLO-684) was 1240 nM.

In the case of `CC(C)C[C@@H](C=O)NC(=O)[C@H](CC(C)C)NC(=O)[C@H](CC(C)C)NC(=O)OCc1ccccc1` [MG-132] (Cbz-Leu-Leu-Leu-aldehyde), the IC50 ([1]; ctb-1) is reported as 780 nM and > 1000 nM, the IC50 ([2]; djm-1) is reported as > 1000 nM and the IC50 ([4]; es4) is reported as > 1000 nM. For the same compound, the IC50 ([5]; ew-1) was 210 nM and > 1000 nM, the IC50 ([6]; Homo sapiens, EW-13) was > 1000 nM and the IC50 ([6]; ew-13) was > 1000 nM. The IC50 ([7]; ew-3) was > 1000 nM, the IC50 ([8]; gciy) was > 1000 nM and the IC50 ([9]; gt3tkb) was > 1000 nM. The IC50 ([10]; hal-01) was > 1000 nM, the IC50 ([11]; hce-t) was > 1000 nM and the IC50 ([12]; ist-mes1) was > 1000 nM. The IC50 ([13]; jar) was > 1000 nM, the IC50 ([14]; jvm-2) was > 1000 nM and the IC50 ([15]; ke-37) was 133 nM and 639 nM. For the same compound, the IC50 ([16]; kuramochi) was > 1000 nM, the IC50 ([17]; Homo sapiens, L-363) was > 1000 nM and the IC50 ([17]; l-363) was > 1000 nM. The IC50 ([18]; lama-84) was 219 nM and > 1000 nM, the IC50 ([19]; Homo sapiens, LB1047-RCC) was > 1000 nM and the IC50 ([19]; lb1047-rcc) was > 1000 nM. The IC50 ([20]; lu-139) was > 1000 nM, the IC50 ([21]; mc116) was > 1000 nM and the IC50 ([22]; ml-2) was 118 nM and 473 nM. The IC50 ([23]; nb10) was > 1000 nM, the IC50 ([24]; Homo sapiens, NCI-H446) was > 1000 nM and the IC50 ([24]; nci-h446) was > 1000 nM. The IC50 ([25]; nci-h526) was > 1000 nM, the IC50 ([26]; Homo sapiens, NCI-H747) was 371 nM and the IC50 ([26]; nci-h747) was 713 nM. The IC50 ([27]; nci-h82) was > 1000 nM, the IC50 ([28]; snu1) was > 1000 nM and the IC50 ([29]; nmc-g1) was > 1000 nM. The IC50 ([30]; nos-1) was > 1000 nM, the IC50 ([31]; os-rc-2) was 480 nM and > 1000 nM and the IC50 ([32]; ovcar-4) was 109 nM and > 1000 nM. For the same compound, the IC50 ([33]; p30-ohk) was > 1000 nM, the IC50 ([34]; rko) was > 1000 nM and 932 nM and the IC50 ([35]; rxf 393) was 250 nM and > 1000 nM. For the same compound, the IC50 ([36]; Homo sapiens, SBC-1) was > 1000 nM, the IC50 ([36]; sbc-1) was > 1000 nM and the IC50 ([37]; shp-77) was > 1000 nM. The IC50 ([38]; sk-n-fi) was > 1000 nM, the IC50 ([39]; sk-nep-1) was > 1000 nM and the IC50 ([40]; sw 962) was > 1000 nM. The IC50 [41] was > 1000 nM, the IC50 ([42]; a3-kaw) was > 1000 nM and the IC50 ([43]; a4-fuk) was > 1000 nM. For the same compound, the IC50 ([44]; atn-1) was > 1000 nM, the IC50 ([45]; be-13) was > 1000 nM and 562 nM and the IC50 ([46]; tgbc1tkb) was > 1000 nM and 686 nM. The IC50 ([47]; tk-10) was 254 nM and > 1000 nM, the IC50 ([48]; u-266) was > 1000 nM and the IC50 ([49]; cas-1) was 155 nM and > 1000 nM. For the same compound, the IC50 ([50]; colo-684) was 907 nM and > 1000 nM.
